The subject of series [1] is splenic CD11c+ DCs from B6 mice. The experiment in a line: Presentation of SIINFEKL via MHC-I by DCs. In kind it is cell-based, mouse. The following applies: anti-SIIN/MHC-I antibody. As for the experimental part:
DC activation and antigen presentation: […] After incubation with iPEM-coated AuNPs, DCs were washed twice with PBS+1% BSA, then blocked in anti-CD16/CD32 (Fcγ III/II receptor) (25× dilution, BD Biosciences) for 15 min at room temperature. The cells were then stained with antibodies for CD80 (FITC), CD86 (AmCyan-A), and CD40 (PE). To quantify presentation of SIINFEKL (SEQ ID NO:15) via the MHC-I pathway, cells were stained with a PE-Cy7 labeled antibody (BioLegend) against anti-mouse H-2Kb bound to OVA257-264 (SIINFEKL (SEQ ID NO:15)). All antibodies were fluorescent conjugates and were used by staining for 20 min at a 1:300 dilution in PBS+1% BSA. Cells were then washed twice in PBS+1% BSA and resuspended in a DAPI solution for analysis by flow cytometry. The data analysis was performed with Flowjo (Treestar).

The next series concerns primary DCs. In kind it is cell-based, mouse. As for the experimental part: Cell internalization studies: Association and uptake of coated AuNPs by DCs was characterized by flow cytometry (FACS CantoII, BD Bioscience) and confocal microscopy (Leica SP5X). For flow cytometry, CD11c^+ splenic DCs were seeded in 96 well plates at a concentration of 1.0×10^5 cells per well. Uncoated AuNPs or AuNPs-(polyIC-Cy5/SIIN*-FITC)2 were then added to each well in a volume of 25 μL. Two-fold serial dilutions were performed using a starting iPEM/AuNPs concentration of 1.9 mg/mL. Cells were then cultured for 16 h. After incubation, cells were washed twice by centrifugation and re-suspended in FACS buffer (PBS+1% BSA). The washed cells were finally resuspended in a DAPI solution (0.1% in PBS+1% BSA) to allow assessment of viability by flow cytometry (i.e., DAPI^− cells). Cells positive for FITC and Cy5 signals compared with negative controls were considered to have associated with iPEMs.

The next series concerns OT-I CD8+ T cells. The experiment in a line: DC / OT-I CD8+ T cell co-culture, CFSE proliferation. Format: cell-based, mouse. The note with it: T cells co-cultured with treated DCs. As for the experimental part:
(§1) T cell co-culture, activation, and proliferation: […] Untreated cells were used as a negative control. After 48 h, T cells isolated from OT-I mice were stained with CellTrace™ CFSE cell proliferation reagent (5 μg/mL in cell culture medium) by incubation at room temperature for 5 min. T cells were then co-cultured with each DC sample by addition of 3.0×10^5 T cells per well. After an additional 48 h of incubation, cells were centrifuged (800 rcf for 5 min), the supernatants were collected for ELISA, and the cells were washed in PBS+1% FBS. Cells were then blocked as above and stained with anti-CD8a (APC) for 15 min at room temperature. Lastly, cells were washed twice and re-suspended in DAPI. T cell proliferation was determined by the mean fluorescence intensity (MFI) of CFSE signal among DAPI^−, CD8^+ cells compared with positive and negative controls.

Series [2] relates to DC/OT-I T cell co-cultures. The experiment in a line: ELISA of cytokines in DC/T cell co-culture supernatants. In kind it is cell-based, mouse. The following applies: co-culture supernatant, SIIN-treated samples. As for the experimental part: as §1, with “controls. ELISA: Cytokine levels in the supernatants collected from DCs/T cell co-cultures were analyzed by ELISA using mouse TNF, IFN-γ, and IL-1β ELISA reagents (BD Bioscience) according to the manufacturer's instructions. 10 μL of each supernatant was used in each test, and cytokine concentrations were quantified by comparison to standard curves prepared from known standards.” for “controls.”
(ELISA stands for enzyme-linked immunosorbent assay.)

In another series the target is T1, TLR3 (Mus musculus, UniProt Q99MB1).
T1 construct: host or cells: HEK-Blue mTLR3 (HEK293-derived reporter cells)
T1 sequence (Q99MB1 26-905): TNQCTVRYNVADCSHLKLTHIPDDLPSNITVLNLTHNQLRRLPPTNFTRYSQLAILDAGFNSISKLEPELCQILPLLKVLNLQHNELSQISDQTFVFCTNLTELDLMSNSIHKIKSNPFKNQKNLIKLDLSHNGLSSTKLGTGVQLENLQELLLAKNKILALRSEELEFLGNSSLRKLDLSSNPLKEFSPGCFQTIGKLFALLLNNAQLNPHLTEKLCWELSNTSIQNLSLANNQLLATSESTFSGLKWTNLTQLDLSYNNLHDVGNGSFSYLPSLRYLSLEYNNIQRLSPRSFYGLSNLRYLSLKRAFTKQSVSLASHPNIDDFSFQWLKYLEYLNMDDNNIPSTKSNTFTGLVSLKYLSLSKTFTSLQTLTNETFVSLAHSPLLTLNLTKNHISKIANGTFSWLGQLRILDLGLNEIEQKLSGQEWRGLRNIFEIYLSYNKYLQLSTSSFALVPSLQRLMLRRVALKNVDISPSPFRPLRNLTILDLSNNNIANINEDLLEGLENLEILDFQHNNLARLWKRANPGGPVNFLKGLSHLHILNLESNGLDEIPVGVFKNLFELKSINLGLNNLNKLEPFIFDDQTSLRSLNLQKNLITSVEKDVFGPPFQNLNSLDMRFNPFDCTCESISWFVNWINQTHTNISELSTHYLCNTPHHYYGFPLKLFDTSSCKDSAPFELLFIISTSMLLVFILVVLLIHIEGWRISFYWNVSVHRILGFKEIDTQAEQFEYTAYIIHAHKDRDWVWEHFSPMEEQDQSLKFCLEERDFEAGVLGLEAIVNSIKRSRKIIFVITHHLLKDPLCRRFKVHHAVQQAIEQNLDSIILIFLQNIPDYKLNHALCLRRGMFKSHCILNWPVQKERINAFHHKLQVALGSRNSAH
The experiment in a line: TLR3 signaling in HEK-Blue mTLR3 cells (AuNP iPEMs). In kind it is cell-based. The note with it: 16 hours, absorbance 625 nm. The protocol: TLR3 signaling: TLR3 activity was assessed using HEK-Blue mTLR3 cells (Invivogen). Cells were seeded at a concentration of 5.0×10^4 cells per well, followed by treatment with Pam3CSK4 (0.2 μg/mL), LPS (1.0 μg/mL), polyIC (10 μg/mL), C-ODN (5 μg/mL), SIIN peptide (5 μg/mL), AuNPs (1.9×10^−2 mg/well), AuNP-(C-ODN/SIIN*)2 (80 μg/mL), or AuNP-(polyIC/SIIN*)2 (80 μg/mL). After 16 hours the absorbance was read at 625 nm using a UV/Vis platereader (Molecular Devices).

“Polyinosinic-polycytidylic acid [polyIC]”: the “DCs presenting SIIN via MHC-I” value in series [1] is “baseline levels”. In the series on primary DCs, the “viability of DCs relative to cells treated with LPS” value is given as 92.8%.
Consider “SIINFEKL (Ovalbumin peptide model antigen) [SIIN peptide]”, for which the “OT-I T cell proliferation (CFSE dilution)” value in the series with OT-I CD8+ T cells is on record as “proliferation of OT-I T cells”. Moreover, the cytokine secretion entry in series [2] is “lack of cytokine secretion”.
For the substance lipopolysaccharide [LPS], the TLR3 signaling result on TLR3 is on record as “lack of signal”. Moreover, the “DCs presenting SIIN via MHC-I” value in series [1] was “baseline levels”.
Pam3CSK4: the TLR3 signaling entry on TLR3 is listed as “lack of signal”.
